Read-outs that look alike come from different tables or passages of the source.
Key:
[1] = target: T1, cruzain (Trypanosoma cruzi, UniProt P25779); experiment: Cruzain enzyme inhibition assay (cleavage of fluorogenic substrate Z-FR-AMC); assay type: biochemical; details: for inhibition at 100 µM: compound 100 µM, mean of three measures; for Mechanism of cruzain inhibition (Lineweaver-Burk plots): eight substrate and four inhibitor concentrations
T1 construct: made in house; host or cells: Escherichia coli (strain M15)
T1 sequence (P25779 123-337 limits assumed): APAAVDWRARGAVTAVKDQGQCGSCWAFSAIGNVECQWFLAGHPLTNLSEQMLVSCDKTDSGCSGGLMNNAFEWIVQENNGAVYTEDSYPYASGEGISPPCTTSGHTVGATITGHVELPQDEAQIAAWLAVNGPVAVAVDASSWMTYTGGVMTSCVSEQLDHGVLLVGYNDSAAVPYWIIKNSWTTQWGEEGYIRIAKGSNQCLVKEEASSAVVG
Summary of the method: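 Recombinant C-terminally truncated cruzain, activated from pro-enzyme, assayed in 0.1 M sodium acetate pH 5.5 with 5 mM DTT and 0.01% Triton X-100 (also run at 0 and 0.1%) at 30°C. Z-FR-AMC cleavage followed 5 min (ex 355/em 460 nm); IC50 from initial rates versus DMSO, ≥6 concentrations in triplicate; single-dose at 100 μM.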

[2] = Cytotoxicity MTS assay in HFF-1 fibroblasts; assay type: cell-based; details: human HFF-1 fibroblasts
Protocol: The synthesized compounds were evaluated for their cytotoxicity against HFF-1 cells using the MTS assay (Promega, Madison, WI) ([Barltrop et al., 1991]) as previously described ([Ferreira et al., 2019]). HFF-1 fibroblasts were plated at 2 × 10^3/well in 96-well culture plates in RPMI 1640 without phenol red enriched with 10% FCS and incubated overnight at 37°C and 5% CO2. Next, 7 concentrations (0.1–100 µM) of the compounds were added in 3-fold serial dilutions, each concentration in triplicate, and the plates were incubated for 72 h at 37°C and 5% CO2. Next, 20 µl of MTS was added to each well, and the plates were incubated for an additional 4 h at 37°C and 5% CO2. The absorbance was measured at 490 nm using a spectrophotometer, and the data were transferred to SigmaPlot 10.0 (Systat Software Inc., Erkrath, Germany) to determine the IC50 values. Doxorubicin (Sigma–Aldrich) was used as a positive control, and untreated wells (100% growth) were used as negative controls in all plates. All compounds were tested in two independent assays.

[3] = Parallel artificial membrane permeability assay (PAMPA); assay type: in vitro ADME; parameters: PAMPA: unit: 1e-6 cm/s; details: for PAMPA: unit not given
Protocol: The permeability of the compounds was assessed using the PAMPA method ([Yu et al., 2015]). The test compounds were dissolved in DMSO to a concentration of 5 mM. Next, the compounds were diluted in a stock plate in saline phosphate buffer (PBS), pH 6.5, containing 1% DMSO to a concentration of 1 µM. Then, 300 µl of each test compound was added to the donor plate. Afterward, 200 µl of PBS buffer, pH 7.4, was added to the acceptor plate. The donor plate was attached to the acceptor plate. The assembled acceptor-donor plate was then incubated at 37°C for 5 h under gentle agitation. To analyze the concentration of the compounds by mass spectrometry, two analysis plates (one for the donor and another for the acceptor plate) containing 300 μl of MEOH:ACN 50:50 were prepared. To the donor analysis plate, 90 µl of PBS, pH 6.5, and 10 µl of the content of the donor plate were added. For the acceptor analysis plate, 100 µl of the content of the acceptor plate was added. To monitor any potential decomposition/intrinsic instability of the test compounds in solution, samples from the stock plate were subjected to LC-MS/MS. The compounds that presented Pe ≥ 1.5 × 10^−6 cm/s were classified as permeable, while compounds that presented Pe < 1.5 × 10^−6 cm/s were considered poorly permeable or nonpermeable.

[4] = 1.5 nM cruzain, 5.0 µM Z-FR-AMC, mean ± SD of 2–3 assays, read-out: IC50 (µM) against cruzain
[5] = Table S2, substrate 2.5 µM, read-out: IC50 (µM) cruzain at [S] 2.5 µM
[6] = Table S2, substrate 5 µM, read-out: IC50 (µM) cruzain at [S] 5 µM
[7] = Table S2, substrate 10 µM, read-out: IC50 (µM) cruzain at [S] 10 µM
[8] = Table S2, substrate 15 µM, read-out: IC50 (µM) cruzain at [S] 15 µM
[9] = Table S2, substrate 20 µM, read-out: IC50 (µM) cruzain at [S] 20 µM
[10] = Table S2, substrate 40 µM, read-out: IC50 (µM) cruzain at [S] 40 µM
[11] = PAMPA, Table 3, donor pH 6.5, acceptor pH 7.4, 5 h

| Structure (SMILES) | IC50 [1, 4] | IC50 [1, 5] | IC50 [1, 6] | IC50 [1, 7] | IC50 [1, 8] | IC50 [1, 9] | IC50 [1, 10] | inhibition at 100 µM [1] | Mechanism of cruzain inhibition (Lineweaver-Burk plots) [1] | IC50 at 72 h [2] | Papp at 5 h, 1 µM [3, 11] | PAMPA ([3]; Table S5) | Papp at 5 h, 1 µM ([3]; Table S5, unit inferred) | % cruzain inhibition, 0% Triton ([1]; Table S1, 0% Triton X-100) | % cruzain inhibition, 0.01% Triton ([1]; Table S1, 0.01% Triton X-100) | % cruzain inhibition, 0.1% Triton ([1]; Table S1, 0.1% Triton X-100) |
| --- | --- | --- | --- | --- | --- | --- | --- | --- | --- | --- | --- | --- | --- | --- | --- | --- |
| O=C(COc1ccccc1)NCCc1nc2ccccc2n1Cc1ccccc1 [Compound 26] | 1.1 ± 0.2 µM | 1.6 ± 0.1 µM | 1.8 ± 0.1 µM | 1.9 ± 0.2 µM | 1.4 ± 0.5 µM | 2.4 ± 0.9 µM | 1.2 ± 0.5 µM | 77% | noncompetitive | > 100 µM | 87.2 nm/s | 8.72 |  |  |  |  |
| CC(=O)Nc1cccc(OCC(=O)NCCc2nc3ccccc3[nH]2)c1 [Compound 3] | 28.1 ± 3.1 µM |  |  |  |  |  |  | 70% |  | > 100 µM | 1.7 nm/s | 0.17 |  |  |  |  |
| CC(=O)Nc1ccc(OCC(=O)NCCc2nc3ccccc3[nH]2)cc1 [Compound 2] | 4.5 ± 0.5 µM |  |  |  |  |  |  | 79% |  | > 100 µM | 2.1 nm/s | 0.21 |  |  |  |  |
| O=C(COc1ccc(NC(=O)CCCO)cc1)NCCc1nc2ccccc2[nH]1 [Compound 5] |  |  |  |  |  |  |  | 87% |  | > 100 µM |  |  | 0.2 nm/s |  |  |  |
| O=C(COc1ccccc1)NCCc1nc2ccccc2[nH]1 [Compound 1] | 10.9 ± 1 µM |  |  |  |  |  |  | 90% | competitive | > 100 µM | 42.1 nm/s | 4.21 |  |  |  |  |
| O=C(COc1cccc([N+](=O)[O-])c1)NCCc1nc2ccccc2[nH]1 [Compound 8] | 13.5 ± 2.6 µM |  |  |  |  |  |  | 83% |  | > 100 µM | 21.7 nm/s | 2.17 |  |  |  |  |
| C=CCCn1c(CCNC(=O)COc2ccccc2)nc2ccccc21 [Compound 27] | 13.7 ± 1.4 µM | 12.4 ± 2.2 µM | 7.5 ± 1.2 µM | 14.7 ± 1.8 µM | 11.2 ± 1.5 µM | 10.2 ± 1.5 µM | 8.9 ± 3.1 µM | 79% | noncompetitive | > 100 µM | 90.6 nm/s | 9.06 |  |  |  |  |
| NC(=O)Cn1c(CCNC(=O)COc2ccccc2)nc2ccccc21 [Compound 28] | 12.1 ± 2.4 µM |  |  |  |  |  |  | 81% |  | > 100 µM | 7.1 nm/s | 0.71 |  |  |  |  |
| O=C(COc1ccc2cc(O)ccc2c1)NCCc1nc2ccccc2[nH]1 [Compound 10] | 3.4 ± 0.9 µM |  |  |  |  |  |  | 90% |  | > 100 µM | 2.1 nm/s | 0.21 |  |  |  |  |
| O=C(COc1ccccc1)NCCc1nc2ccccc2n1CCOc1ccccc1 [Compound 20] | 1.04 ± 0.7 µM | 0.5 ± 1.3 µM | 0.4 ± 1.2 µM | 1 ± 1.5 µM | 0.8 ± 1.7 µM | 0.3 µM | 0.5 ± 1.2 µM | 92% | noncompetitive | > 30 µM | 43 nm/s | 4.30 |  | 95.2 ± 0.6% | 95.9 ± 1.7% | 96.0 ± 1.1% |

— paper PMC8767159, “Multiparameter Optimization of Trypanocidal Cruzain Inhibitors With In Vivo Activity and Favorable Pharmacokinetics” (Frontiers in Pharmacology, 2022)
